Reference: patent US20020103163A1, “Acetylenic sulfonamide thiol TACE inhibitors” (American Cyanamid Company, priority 1999, published 2002)

Assays:
MMP-13 = MMP-13 (Homo sapiens, UniProt P45452); assay: MMP-13 inhibition (thiopeptide or fluorescent peptide substrate); assay type: biochemical
Description: (§1) These standard pharmacological test procedures are based on the cleavage of a thiopeptide substrates such as Ac-Pro-Leu-Gly(2-mercapto-4-methyl-pentanoyl)-Leu-Gly-OEt by the matrix metalloproteinases MMP-1, MMP-13 (collagenases) or MMP-9 (gelatinase), which results in the release of a substrate product that reacts calorimetrically with DTNB (5,5′-dithiobis(2-nitro-benzoic acid)). The enzyme activity is measured by the rate of the color increase. The thiopeptide substrate is made up fresh as a 20 mM stock in 100% DMSO and the DTNB is dissolved in 100% DMSO as a 100 mM stock and stored in the dark at room temperature. […] The buffer enzyme, vehicle or inhibitor, and DTNB/substrate are added in this order to a 96 well plate (total reaction volume of 200 μl) and the increase in color is monitored spectrophotometrically for 5 minutes at 405 nm on a plate reader and the increase in color over time is plotted as a linear line.
(§2) Alternatively, a fluorescent peptide substrate is used. […] Upon cleavage of the substrate by an MMP, the fluorescence that is generated is quantitated on the fluorescence plate reader. […] The reaction is read (excitation 340 nm, emission 444 nm) for 10 min. and the increase in fluorescence over time is plotted as a linear line.
(§3) For either the thiopeptide or fluorescent peptide test procedures, the slope of the line is calculated and represents the reaction rate. […]

TACE = TACE (Homo sapiens, UniProt P78536); assay: TACE inhibition (fluorescent peptidyl substrate); assay type: biochemical
Description: Using 96-well black microtiter plates, each well receives a solution composed of 10 μL TACE (final concentration 1 μg/mL), 70 μL Tris buffer, pH 7.4 containing 10% glycerol (final concentration 10 mM), and 10 μL of test compound solution in DMSO (final concentration 1 μM, DMSO concentration <1%) and incubated for 10 minutes at room temperature. The reaction is initiated by addition of a fluorescent peptidyl substrate (final concentration 100 μM) to each well and then shaking on a shaker for 5 sec.
The reaction is read (excitation 340 nm, emission 420 nm) for 10 min. and the increase in fluorescence over time is plotted as a linear line. The slope of the line is calculated and represents the reaction rate.
The linearity of the reaction rate is confirmed (r^2>0.85). The mean (x±sem) of the control rate is calculated and compared for statistical significance (p<0.05) with drug-treated rates using Dunnett's multiple comparison test. Dose-response relationships can be generate using multiple doses of drug and IC50 values with 95% CI are estimated using linear regression.

MMP-1 = biological target: T1, MMP-1 (Homo sapiens, UniProt P03956); assay: MMP-1 inhibition (thiopeptide or fluorescent peptide substrate); assay type: biochemical
T1 sequence (P03956 100-469): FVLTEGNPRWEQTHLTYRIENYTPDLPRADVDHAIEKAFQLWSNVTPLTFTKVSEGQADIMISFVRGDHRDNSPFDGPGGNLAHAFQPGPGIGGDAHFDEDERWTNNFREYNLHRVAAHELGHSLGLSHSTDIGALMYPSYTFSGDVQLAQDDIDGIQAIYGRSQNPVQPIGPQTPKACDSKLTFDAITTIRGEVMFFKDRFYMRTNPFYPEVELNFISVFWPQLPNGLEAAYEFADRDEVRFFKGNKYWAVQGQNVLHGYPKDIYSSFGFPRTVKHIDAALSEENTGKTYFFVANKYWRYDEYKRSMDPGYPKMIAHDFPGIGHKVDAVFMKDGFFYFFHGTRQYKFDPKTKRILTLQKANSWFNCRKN
Description: as §1, §2, §3

THP-1 cells = assay: THP-1 soluble protein assay (LPS-stimulated THP-1 cells, ELISA); assay type: cell-based; conditions: Homo sapiens
Source text: Mitogenic stimulation of THP-1 cells cause differentiation into macrophage like cells with concomitant secretion of tumor necrosis factor (TNF-_) and TNF receptor (TNF-R p75/80 and TNF-R p55/60) and Interleukin-8 (IL-8), among other proteins. In addition, non-stimulated THP-1 cells shed both the p75/80 and the p55/60 receptors over time. The release of membrane bound TNF-_ and possibly TNF-R p75/80 and TNF-R p55/60, but not IL-8, is mediated by an enzyme called TNF-_ converting enzyme or TACE.
THP-1 cells (from ATCC) are a human monocytic cell line which were obtained from the peripheral blood of a person with acute monocytic leukemia. […]
To perform an assay, the THP-1 cells are co-incubated in a 24 well plate with […] of a 24 mg/ml stock of Lipopolysacharide (LPS) (Calbiochem Lot#B13189) at 37iC in 5% CO2 at a concentration of 1.091×10^6 cells/ml (1.1 ml/well) for a total of 24 hours. […] Compounds can be evaluated for their effect on basal (non-stimulated) shedding of the receptors by replacing the LPS with […] of THP-1 media. […]
In addition, at the 24 hours timepoint, and the cells for each treatment group are collected by resuspension in 500 μl/well of THP-1 media and transferred into a FACS tube. […] The samples are run on a Becton Dickinson FaxCaliber FLOW cytometry machine and the amount of dye taken up by each cell is measured in the high red wavelength (FL3). […]

MMP-9 = MMP-9 (Homo sapiens, UniProt P14780); assay: MMP-9 inhibition (thiopeptide or fluorescent peptide substrate); assay type: biochemical
Description: as §1, §2, §3

Sequence of MMP-9 (P14780 94-707): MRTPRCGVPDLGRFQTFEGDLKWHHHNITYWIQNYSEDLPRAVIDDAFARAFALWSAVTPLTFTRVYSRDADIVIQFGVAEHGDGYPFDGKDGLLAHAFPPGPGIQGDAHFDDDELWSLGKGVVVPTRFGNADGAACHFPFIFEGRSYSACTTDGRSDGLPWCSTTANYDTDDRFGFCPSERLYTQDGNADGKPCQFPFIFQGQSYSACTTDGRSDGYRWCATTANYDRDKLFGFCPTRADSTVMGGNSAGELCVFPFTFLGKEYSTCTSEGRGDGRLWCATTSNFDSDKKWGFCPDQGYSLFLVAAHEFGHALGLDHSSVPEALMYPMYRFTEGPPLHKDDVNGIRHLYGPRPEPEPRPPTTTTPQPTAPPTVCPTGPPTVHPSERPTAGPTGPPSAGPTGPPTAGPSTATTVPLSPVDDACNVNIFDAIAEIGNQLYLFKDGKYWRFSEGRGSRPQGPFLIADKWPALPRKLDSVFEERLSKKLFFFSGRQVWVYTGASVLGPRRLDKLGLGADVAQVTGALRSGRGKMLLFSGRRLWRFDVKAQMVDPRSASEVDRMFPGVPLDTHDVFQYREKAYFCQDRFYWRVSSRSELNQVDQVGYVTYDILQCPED
Sequence of TACE (P78536 215-824): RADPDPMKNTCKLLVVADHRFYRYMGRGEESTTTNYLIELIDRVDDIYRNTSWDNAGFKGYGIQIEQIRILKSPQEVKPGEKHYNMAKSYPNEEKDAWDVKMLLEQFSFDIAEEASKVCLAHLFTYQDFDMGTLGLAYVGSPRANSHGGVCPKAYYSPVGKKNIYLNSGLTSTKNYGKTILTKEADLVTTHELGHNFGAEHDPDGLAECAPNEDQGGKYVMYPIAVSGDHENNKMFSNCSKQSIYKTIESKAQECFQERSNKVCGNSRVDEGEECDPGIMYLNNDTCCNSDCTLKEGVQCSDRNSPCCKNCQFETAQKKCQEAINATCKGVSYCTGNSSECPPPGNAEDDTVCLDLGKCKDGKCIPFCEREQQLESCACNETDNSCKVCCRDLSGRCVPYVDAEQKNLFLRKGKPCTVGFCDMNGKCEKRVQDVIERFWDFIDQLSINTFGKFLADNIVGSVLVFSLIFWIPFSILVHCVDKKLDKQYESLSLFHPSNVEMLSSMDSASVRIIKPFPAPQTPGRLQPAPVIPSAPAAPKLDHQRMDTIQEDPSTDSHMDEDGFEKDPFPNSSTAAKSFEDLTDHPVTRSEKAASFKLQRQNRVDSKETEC

- IC50 (MMP-13): 679 nM
- IC50 (TACE): 273 nM
- IC50 (MMP-1): 6300 nM
- IC50 (MMP-9): 2700 nM
Compound: CC#CCOc1ccc(S(=O)(=O)N(C)[C@H](C)CS)cc1 [Example 8, 4-But-2-ynyloxy-N-((1R)-2-mercapto-1-methyl-ethyl)-N-methyl-benzenesulfonamide]
- inhibition at 3 µM (THP-1 cells): 3%
